These results are taken from patent US20130338154A1, “MGLUR4 ALLOSTERIC POTENTIATORS, COMPOSITIONS, AND METHODS OF TREATING NEUROLOGICAL DYSFUNCTION” (Vanderbilt University, priority 2009, published 2013).

Assay [1] concerns the target T1, mGluR4 (Homo sapiens, UniProt Q14833). Put plainly: mGluR4 potentiation assay (Table I): response to EC20 agonist in presence of compound. It is filed as cell-based. Particulars: for EC50: potentiation of mGluR4 agonist response.
Target sequence in this assay (Q14833 whole entry): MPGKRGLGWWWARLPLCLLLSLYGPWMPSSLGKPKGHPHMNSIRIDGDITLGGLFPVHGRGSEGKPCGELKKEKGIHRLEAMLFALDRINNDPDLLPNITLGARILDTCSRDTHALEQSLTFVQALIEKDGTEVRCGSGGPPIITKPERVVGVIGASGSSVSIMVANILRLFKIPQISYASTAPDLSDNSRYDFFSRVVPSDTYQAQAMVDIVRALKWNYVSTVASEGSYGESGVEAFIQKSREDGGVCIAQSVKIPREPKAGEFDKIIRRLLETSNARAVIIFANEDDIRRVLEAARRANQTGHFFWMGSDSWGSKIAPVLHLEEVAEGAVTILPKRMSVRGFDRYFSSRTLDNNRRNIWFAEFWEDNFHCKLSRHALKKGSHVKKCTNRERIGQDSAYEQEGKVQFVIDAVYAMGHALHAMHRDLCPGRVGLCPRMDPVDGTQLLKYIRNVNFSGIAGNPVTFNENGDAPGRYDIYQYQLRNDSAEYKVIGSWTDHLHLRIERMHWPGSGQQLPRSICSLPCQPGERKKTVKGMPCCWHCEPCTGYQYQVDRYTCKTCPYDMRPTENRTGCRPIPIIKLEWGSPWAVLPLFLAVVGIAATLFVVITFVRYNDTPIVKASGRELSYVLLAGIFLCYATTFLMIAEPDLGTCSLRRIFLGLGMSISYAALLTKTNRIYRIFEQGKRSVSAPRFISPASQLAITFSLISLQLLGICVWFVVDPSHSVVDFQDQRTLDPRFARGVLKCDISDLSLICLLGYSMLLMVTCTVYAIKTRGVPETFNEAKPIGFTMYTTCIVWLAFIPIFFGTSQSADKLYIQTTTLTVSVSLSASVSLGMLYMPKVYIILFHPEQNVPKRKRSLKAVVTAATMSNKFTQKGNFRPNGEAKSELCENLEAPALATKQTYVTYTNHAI
For assay [2], the target named is T1, mGluR4. Put plainly: human mGluR4 potentiation in transfected CHO cells, Ca2+-sensitive fluorescent dye. It is filed as cell-based. On the set-up: expressed in transfected cells; host or cells: CHO cells. Particulars: unit inferred, read-out: hEC50.
Target sequence in this assay (Q14833 33-912): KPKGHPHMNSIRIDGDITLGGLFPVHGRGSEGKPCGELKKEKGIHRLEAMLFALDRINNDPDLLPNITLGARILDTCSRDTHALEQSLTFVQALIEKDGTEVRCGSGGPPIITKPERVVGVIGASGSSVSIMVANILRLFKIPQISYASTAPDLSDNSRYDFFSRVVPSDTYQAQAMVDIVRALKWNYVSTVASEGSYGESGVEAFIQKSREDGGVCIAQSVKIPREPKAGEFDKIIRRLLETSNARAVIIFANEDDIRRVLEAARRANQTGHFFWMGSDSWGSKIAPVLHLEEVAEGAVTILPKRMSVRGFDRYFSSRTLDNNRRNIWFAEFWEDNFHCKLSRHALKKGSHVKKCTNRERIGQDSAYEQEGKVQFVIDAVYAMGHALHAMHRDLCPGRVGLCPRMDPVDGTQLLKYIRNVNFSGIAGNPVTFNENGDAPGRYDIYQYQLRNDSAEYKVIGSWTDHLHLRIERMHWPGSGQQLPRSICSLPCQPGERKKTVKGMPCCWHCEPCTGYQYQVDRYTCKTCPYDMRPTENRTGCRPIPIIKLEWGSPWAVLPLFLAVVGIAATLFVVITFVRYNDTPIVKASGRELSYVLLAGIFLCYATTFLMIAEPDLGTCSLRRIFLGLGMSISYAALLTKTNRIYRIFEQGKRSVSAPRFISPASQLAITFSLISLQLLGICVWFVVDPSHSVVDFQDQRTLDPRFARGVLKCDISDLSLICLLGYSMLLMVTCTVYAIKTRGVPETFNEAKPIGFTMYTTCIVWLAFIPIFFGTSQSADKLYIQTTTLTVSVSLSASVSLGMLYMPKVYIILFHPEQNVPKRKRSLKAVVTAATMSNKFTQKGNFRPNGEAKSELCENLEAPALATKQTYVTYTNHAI

As for `O=C(Nc1ccn(S(=O)(=O)Cc2ccccc2F)c1)c1ccccn1` [Example 29], at mGluR4 [1] (maximum extent of potentiation), the “% Glu Max” value was 161%. Besides, the EC50 on mGluR4 [1] is 473 nM.

In the case of `CC(c1ccccc1F)S(=O)(=O)n1ccc(NC(=O)c2ccccn2)c1` (stereo not shown) [Example 99, N-(1-((1-(2-fluorophenyl)ethyl)sulfonyl)-1H-pyrrol-3-yl)picolinamidc], the EC50 on mGluR4 [2] stood at 396 nM.

`CC(C)Cc1ccc(S(=O)(=O)n2ccc(NC(=O)c3ccccn3)c2)cc1` [Example 17]: the “% Glu Max” value on mGluR4 [1] (maximum extent of potentiation) amounted to 30%. The EC50 on mGluR4 [1] came out at 258 nM.

In the case of `O=C(Nc1ccn(S(=O)(=O)Cc2cccc(F)c2)c1)c1ccccn1` [Example 24], the “% Glu Max” value on mGluR4 [1] (maximum extent of potentiation) is reported as 140%. The EC50 on mGluR4 [1] was found to be 587 nM.

With `O=C(Nc1ccn(S(=O)(=O)Cc2cc(Cl)cc(Cl)c2)c1)c1ccccn1` [Example 35], the “% Glu Max” value on mGluR4 [1] (maximum extent of potentiation) was determined as 156%. In addition, the EC50 at mGluR4 [1] worked out at 3830 nM.

As for `O=C(Nc1ccn(S(=O)(=O)c2ccc(F)cc2)c1)c1ccccn1` [Example 19], the “% Glu Max” value at mGluR4 [1] (maximum extent of potentiation) was determined as 137%. Also, the EC50 at mGluR4 [1] was 280 nM.

`O=C(Nc1ccn(S(=O)(=O)c2cccc(Cl)c2)c1)c1ccccn1` [Example 14]: on mGluR4 [1] (maximum extent of potentiation), the “% Glu Max” value is recorded as 139%. The EC50 at mGluR4 [1] came out at 106 nM.

Take `O=C(Nc1ccn(S(=O)(=O)c2ccc(C(F)(F)F)cc2)c1)c1ccccn1` [Example 23]: at mGluR4 [1] (maximum extent of potentiation), the “% Glu Max” value is recorded as 85%. Further, the EC50 on mGluR4 [1] is 413 nM.

As to `O=C(Nc1ccn(S(=O)(=O)Cc2cccc(C(F)(F)F)c2)c1)c1ccccn1` [Example 27], the “% Glu Max” value at mGluR4 [1] (maximum extent of potentiation) stood at 117%. Besides, on mGluR4 [1], the EC50 worked out at 1730 nM.

For `O=C(Nc1ccn(S(=O)(=O)Cc2ccc(Cl)c(Cl)c2)c1)c1ccccn1` [Example 34], the “% Glu Max” value at mGluR4 [1] (maximum extent of potentiation) amounted to 159%. For the same compound, at mGluR4 [1], the EC50 came out at 828 nM.

Turning to `O=C(Nc1ccn(S(=O)(=O)C2CCCCC2)c1)c1ccccn1` [Example 22], the “% Glu Max” value on mGluR4 [1] (maximum extent of potentiation) was determined as 189%. Moreover, the EC50 at mGluR4 [1] was 1940 nM.

As for `Cc1ccnc(S(=O)(=O)n2ccc(NC(=O)c3ccccn3)c2)c1` [Example 117, N-(1-((4-mcthylpyridin-2-yl)sulfonyl)-1H-pyrrol-3-yl)picolinamide], the EC50 on mGluR4 [2] worked out at 1290 nM.

For the compound `O=C(Nc1ccn(S(=O)(=O)c2ccc(OC(F)(F)F)cc2)c1)c1ccccn1` [Example 18], the “% Glu Max” value on mGluR4 [1] (maximum extent of potentiation) is recorded as 93%. The EC50 at mGluR4 [1] amounted to 546 nM.

Regarding `O=C(Nc1ccn(S(=O)(=O)c2ccccc2OC(F)(F)F)c1)c1ccccn1` [Example 7], the “% Glu Max” value at mGluR4 [1] (maximum extent of potentiation) is reported as 90%. For the same compound, the EC50 at mGluR4 [1] came out at 203 nM.

`Cc1ccc(S(=O)(=O)n2ccc(NC(=O)c3ccco3)c2)cc1` [Example 165, N-(1-tosyl-1H-pyrrol-3-yl)furan-2-carboxamidc]: the EC50 on mGluR4 [2] amounted to 854 nM.

With `O=C(Nc1ccn(S(=O)(=O)c2ccc3c(c2)CCO3)c1)c1ccccn1` [Example 145, N-(1-((2,3-dihydrobenzoruran-5-yl)sulfonyl)-1H-pyrrol-3-yl)picolinamide], at mGluR4 [2], the EC50 stood at 78.4 nM.

In the case of `O=C(Nc1ccn(S(=O)(=O)Cc2ccc(Cl)cc2Cl)c1)c1ccccn1` [Example 31], at mGluR4 [1] (maximum extent of potentiation), the “% Glu Max” value came out at 206%. The EC50 on mGluR4 [1] worked out at 445 nM.

On to `O=C(Nc1ccn(S(=O)(=O)c2cccc(-c3ccccc3)c2)c1)c1ccccn1` [Example 12], for which the “% Glu Max” value at mGluR4 [1] (maximum extent of potentiation) was 122%. At mGluR4 [1], the EC50 stood at 3310 nM.

With `O=C(Nc1ccn(S(=O)(=O)Cc2ccccc2Cl)c1)c1ccccn1` [Example 30], the “% Glu Max” value at mGluR4 [1] (maximum extent of potentiation) stood at 163%. For the same compound, the EC50 on mGluR4 [1] was 83 nM.

As to `O=C(Nc1ccn(S(=O)(=O)Cc2cccc(Cl)c2)c1)c1ccccn1` [Example 25], the “% Glu Max” value on mGluR4 [1] (maximum extent of potentiation) is reported as 132%. Moreover, the EC50 at mGluR4 [1] came out at 839 nM.

In the case of `Cc1ccc(S(=O)(=O)n2ccc(NC(=O)c3nccs3)c2)cc1` [Example 51, N-(1-tosyl-1H-pyrrol-3-yl)thiazole-2-carboxamidc], at mGluR4 [2], the EC50 was 348 nM.

In the case of `Cc1cccc(CS(=O)(=O)n2ccc(NC(=O)c3ccccn3)c2)c1` [Example 38], at mGluR4 [1] (maximum extent of potentiation), the “% Glu Max” value stood at 289%. Further, the EC50 on mGluR4 [1] came to 1450 nM.

Turning to `Cc1cc(S(=O)(=O)n2ccc(NC(=O)c3ccccn3)c2)cnc1Cl` [Example 119, N-(1-((6-chloro-5-metliylpyridin-3-yl)sulfonyl)-1H-pyrrol-3-yl)picolinamide], the EC50 on mGluR4 [2] stood at 249 nM.

Consider `O=C(Nc1ccn(S(=O)(=O)c2ccc(C(F)(F)F)nc2)c1)c1ccccn1` [Example 120, N-(1-((6-(trifluoromethyl)pyricIin-3-yl)sulfonyl)-1H-pyrrol-3-yl)picolinamide], for which, on mGluR4 [2], the EC50 came to 666 nM.

As for `Cc1cccc(S(=O)(=O)n2ccc(NC(=O)c3ccccn3)c2)c1` [Example 15], the “% Glu Max” value on mGluR4 [1] (maximum extent of potentiation) is 175%. Also, at mGluR4 [1], the EC50 turned out to be 90 nM.

For `Cc1ccccc1CS(=O)(=O)n1ccc(NC(=O)c2ccccn2)c1` [Example 28], the “% Glu Max” value on mGluR4 [1] (maximum extent of potentiation) is 164%. Further, on mGluR4 [1], the EC50 came to 1130 nM.

With `O=C(Nc1ccn(S(=O)(=O)Cc2ccc(C(F)(F)F)cc2)c1)c1ccccn1` [Example 37], the “% Glu Max” value on mGluR4 [1] (maximum extent of potentiation) worked out at 158%. The EC50 at mGluR4 [1] is 154 nM.

Take `Cc1ccc(S(=O)(=O)n2ccc(NC(=O)c3ccccn3)c2)cc1` [Example 20]: the “% Glu Max” value on mGluR4 [1] (maximum extent of potentiation) was 188%. In addition, the EC50 at mGluR4 [1] worked out at 57 nM.

As to `Cc1ccc(CS(=O)(=O)n2ccc(NC(=O)c3ccccn3)c2)cc1C` [Example 33], on mGluR4 [1] (maximum extent of potentiation), the “% Glu Max” value turned out to be 178%. Moreover, the EC50 at mGluR4 [1] stood at 215 nM.

`N#Cc1cccc(S(=O)(=O)n2ccc(NC(=O)c3ccccn3)c2)c1` [Example 13]: at mGluR4 [1] (maximum extent of potentiation), the “% Glu Max” value is reported as 104%. Further, at mGluR4 [1], the EC50 is 282 nM.

On to `O=C(Nc1ccn(S(=O)(=O)c2ccc(Cl)cc2)c1)c1ccccn1` [Example 21], for which the “% Glu Max” value on mGluR4 [1] (maximum extent of potentiation) stood at 215%. In addition, on mGluR4 [1], the EC50 is 655 nM.

For the compound `O=C(Nc1ccn(S(=O)(=O)c2ccccc2Cl)c1)c1ccccc1` [Example 46, N-(1-(2-chlorophenylsulfonyl)-1H-pyrrol-3-yl)benzamide], the Emax at mGluR4 [1] (maximum extent of potentiation, read-out: % Glu Max) came out at 85%.

On to `Cc1ccc(S(=O)(=O)n2ccc(NC(=O)c3ccccn3)c2)o1` [Example 142, N-(1-((5-methylruran-2-yl)sulfonyl)-1H-pyrrol-3-yl)picolinamide], for which the EC50 on mGluR4 [2] amounted to 256 nM.

As to `O=C(Nc1ccn(S(=O)(=O)c2ccc(OC(F)F)cc2)c1)c1ccccn1` [Example 16], at mGluR4 [1] (maximum extent of potentiation), the “% Glu Max” value is listed as 151%. Moreover, the EC50 at mGluR4 [1] amounted to 162 nM.

As for `O=C(Nc1ccn(S(=O)(=O)Cc2ccc(F)cc2F)c1)c1ccccn1` [Example 32], on mGluR4 [1] (maximum extent of potentiation), the “% Glu Max” value was found to be 159%. Further, on mGluR4 [1], the EC50 was found to be 188 nM.
